Data: ChEMBL document CHEMBL5370660, “Design of a Supersoft Topical JAK Inhibitor, Which Is Effective in Human Skin but Rapidly Deactivated in Blood” (J Med Chem, 2023)
pIC50: −log10 of the molar value.

Tests used:
[1] = target: JAK3/JAK1 (Homo sapiens, UniProt P23458+P52333); test: Inhibition of JAK1/3-mediated STAT5 phosphorylation in human whole blood incubated for 30 mins followed by IL-2 addition measured after 15 mins by flow cytometry; format: tissue-based
[2] = target: Tyrosine-protein kinase JAK1 (Homo sapiens, UniProt P23458); test: Inhibition of GST-fused JAK1 (866 to 1154 residues)(unknown origin) using FITC-Ahr-KKSRGDYMTMQIG-NH2 peptide as substrate incubated for 30 mins in presence of ATP by caliper microfluidic mobility shift assay
Chain of Tyrosine-protein kinase JAK1 (P23458 whole entry, the tested form may be a part): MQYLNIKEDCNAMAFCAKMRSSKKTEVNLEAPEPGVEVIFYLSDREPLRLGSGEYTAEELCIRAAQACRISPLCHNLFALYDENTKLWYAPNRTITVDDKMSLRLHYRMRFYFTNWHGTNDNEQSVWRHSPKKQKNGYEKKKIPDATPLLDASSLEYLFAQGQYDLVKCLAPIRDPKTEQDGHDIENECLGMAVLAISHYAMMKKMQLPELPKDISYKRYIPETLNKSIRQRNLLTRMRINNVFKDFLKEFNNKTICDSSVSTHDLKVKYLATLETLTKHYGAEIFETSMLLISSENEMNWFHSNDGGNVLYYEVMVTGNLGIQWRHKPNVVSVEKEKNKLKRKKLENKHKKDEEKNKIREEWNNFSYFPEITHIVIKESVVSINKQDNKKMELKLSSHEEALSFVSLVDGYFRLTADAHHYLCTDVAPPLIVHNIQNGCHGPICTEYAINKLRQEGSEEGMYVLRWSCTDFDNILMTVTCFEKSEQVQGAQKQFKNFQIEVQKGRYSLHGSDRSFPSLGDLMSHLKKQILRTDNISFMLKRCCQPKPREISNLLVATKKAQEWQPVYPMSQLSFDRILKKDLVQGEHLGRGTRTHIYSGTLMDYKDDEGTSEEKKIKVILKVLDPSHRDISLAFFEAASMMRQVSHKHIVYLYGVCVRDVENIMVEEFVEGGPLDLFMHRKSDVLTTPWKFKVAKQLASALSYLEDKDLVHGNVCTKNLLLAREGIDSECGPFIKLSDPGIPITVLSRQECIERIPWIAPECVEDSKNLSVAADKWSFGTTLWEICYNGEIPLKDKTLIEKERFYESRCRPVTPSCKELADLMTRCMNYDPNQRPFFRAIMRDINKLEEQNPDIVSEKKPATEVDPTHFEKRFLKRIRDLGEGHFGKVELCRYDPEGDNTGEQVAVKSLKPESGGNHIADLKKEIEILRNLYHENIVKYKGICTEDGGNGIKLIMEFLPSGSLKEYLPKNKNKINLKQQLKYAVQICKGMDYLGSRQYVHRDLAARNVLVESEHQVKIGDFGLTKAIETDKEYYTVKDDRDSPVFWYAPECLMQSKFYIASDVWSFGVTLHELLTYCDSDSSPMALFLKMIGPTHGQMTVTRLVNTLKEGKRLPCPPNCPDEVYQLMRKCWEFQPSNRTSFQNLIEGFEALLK

[3] = Stability in human whole blood assessed as half life at 1 uM incubated upto 8 hrs by LC-MS/MS analysis; format: ADME, tissue-based
[4] = target: T1, Eukaryotic translation initiation factor 2-alpha kinase 3 (Homo sapiens, UniProt Q9NZJ5); test: Inhibition of EIF2AK3 (unknown origin)
T1 sequence (Q9NZJ5 whole entry): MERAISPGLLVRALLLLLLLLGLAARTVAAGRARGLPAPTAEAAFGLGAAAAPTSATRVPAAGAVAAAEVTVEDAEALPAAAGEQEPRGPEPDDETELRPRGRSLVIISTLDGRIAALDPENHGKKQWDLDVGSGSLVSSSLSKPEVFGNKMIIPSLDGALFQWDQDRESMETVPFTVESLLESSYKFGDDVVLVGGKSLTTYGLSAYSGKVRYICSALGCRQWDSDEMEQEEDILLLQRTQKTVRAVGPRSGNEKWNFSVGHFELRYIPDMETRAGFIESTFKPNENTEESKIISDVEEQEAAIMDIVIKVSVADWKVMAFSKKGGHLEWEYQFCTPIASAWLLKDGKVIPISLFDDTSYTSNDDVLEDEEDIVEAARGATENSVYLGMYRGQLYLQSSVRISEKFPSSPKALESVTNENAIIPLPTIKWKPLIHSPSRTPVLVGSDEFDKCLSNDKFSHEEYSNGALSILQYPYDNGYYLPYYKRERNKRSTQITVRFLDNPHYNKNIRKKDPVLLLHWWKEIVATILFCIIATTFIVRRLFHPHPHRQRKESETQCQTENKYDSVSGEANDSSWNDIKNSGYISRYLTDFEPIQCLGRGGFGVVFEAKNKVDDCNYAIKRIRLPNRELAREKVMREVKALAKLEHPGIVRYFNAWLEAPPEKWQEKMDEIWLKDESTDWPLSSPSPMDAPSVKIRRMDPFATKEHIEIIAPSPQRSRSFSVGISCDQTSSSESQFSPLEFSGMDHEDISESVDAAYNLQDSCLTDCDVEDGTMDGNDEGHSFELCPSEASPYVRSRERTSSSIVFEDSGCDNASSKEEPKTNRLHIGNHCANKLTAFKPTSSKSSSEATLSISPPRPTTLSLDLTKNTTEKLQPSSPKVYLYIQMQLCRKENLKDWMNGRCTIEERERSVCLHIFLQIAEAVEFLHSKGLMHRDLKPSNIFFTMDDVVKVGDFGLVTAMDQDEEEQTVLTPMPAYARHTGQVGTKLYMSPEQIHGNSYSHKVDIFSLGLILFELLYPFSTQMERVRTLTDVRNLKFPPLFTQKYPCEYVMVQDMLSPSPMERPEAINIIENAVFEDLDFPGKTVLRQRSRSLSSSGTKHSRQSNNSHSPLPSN

[5] = Lipophilicity, LogD of compound; format: physicochemical; conditions: octanol/water

Chain of JAK3/JAK1 (P52333 whole entry, the tested form may be a part): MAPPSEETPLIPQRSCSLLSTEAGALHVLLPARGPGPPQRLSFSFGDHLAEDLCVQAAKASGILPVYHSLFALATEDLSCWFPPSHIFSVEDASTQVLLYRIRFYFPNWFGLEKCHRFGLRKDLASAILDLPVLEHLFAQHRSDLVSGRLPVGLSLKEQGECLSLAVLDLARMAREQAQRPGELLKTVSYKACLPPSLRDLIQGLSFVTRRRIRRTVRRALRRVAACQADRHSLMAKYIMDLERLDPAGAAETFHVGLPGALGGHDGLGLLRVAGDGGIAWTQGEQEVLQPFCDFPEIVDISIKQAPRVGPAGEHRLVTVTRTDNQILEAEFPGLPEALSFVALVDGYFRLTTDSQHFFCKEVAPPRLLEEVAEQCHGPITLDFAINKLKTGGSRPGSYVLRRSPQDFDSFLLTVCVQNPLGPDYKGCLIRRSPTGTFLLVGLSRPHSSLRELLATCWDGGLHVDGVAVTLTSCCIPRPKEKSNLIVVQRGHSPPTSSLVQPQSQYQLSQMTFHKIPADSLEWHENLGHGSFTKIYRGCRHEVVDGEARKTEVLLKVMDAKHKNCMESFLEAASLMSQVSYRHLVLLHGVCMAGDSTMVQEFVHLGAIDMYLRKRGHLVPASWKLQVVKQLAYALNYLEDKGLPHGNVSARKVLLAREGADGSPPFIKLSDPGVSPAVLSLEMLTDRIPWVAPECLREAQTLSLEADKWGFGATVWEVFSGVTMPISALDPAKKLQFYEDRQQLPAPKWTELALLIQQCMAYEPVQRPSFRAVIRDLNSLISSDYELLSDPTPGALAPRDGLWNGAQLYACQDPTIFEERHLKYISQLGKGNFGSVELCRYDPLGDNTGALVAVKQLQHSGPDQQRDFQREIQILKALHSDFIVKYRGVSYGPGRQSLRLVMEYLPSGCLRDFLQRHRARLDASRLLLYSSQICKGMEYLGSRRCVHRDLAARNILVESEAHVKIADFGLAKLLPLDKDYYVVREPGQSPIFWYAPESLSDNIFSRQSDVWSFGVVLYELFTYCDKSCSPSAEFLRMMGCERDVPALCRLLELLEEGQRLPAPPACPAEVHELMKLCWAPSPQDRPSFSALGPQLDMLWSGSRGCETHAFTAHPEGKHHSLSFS
Chain of JAK3/JAK1 (P23458 whole entry, the tested form may be a part): as the sequence (P23458 whole entry, the tested form may be a part) above

## COC[C@@H](C)OC(=O)Cc1ccc(Nc2cc(Nc3ccccc3OC)c(C(N)=O)cn2)nc1
[1]
  pIC50: 4.83
[2]
  pIC50: 8.30
[3]
  half-life at 1 µM: 6 min
[4]
  pIC50: > 7.00
[5]
  logD: 3.3
